In patent US20180021315A1, “METHODS OF TREATING HEARING DISORDERS” (Wayne State University, priority 2016, published 2018):
“Also recorded” adds a separate entry of the source.

Tests used:
DCN, IC and AC neurons = experiment: Neurophysiological recordings of DCN, IC and AC after blast exposure; type: in vivo, rat; conditions: blast-exposed rats, 56 mg/kg i.p.
Protocol: Rats were exposed or sham-exposed to a blast shockwave. To determine whether TNF-α is involved in blast-induced tinnitus, the rats were injected once daily for 5 days with 3,6′-dithiothalidomide starting 7 days after blast exposure. Behavioral testing and ABR recordings started 1 day after drug injection and lasted for three weeks.
Neurophysiological recordings of the left DCN, right IC and right AC were performed 3 weeks after drug or vehicle injection. Each rat was anesthetized with a mixture of air (1 liter/min) and isoflurane (5% v/v) and then secured in a stereotaxic frame with hollow ear bars (model 1530; David Kopf Instruments, Tujunga, Calif.). A mixture of air (1 liter/min) and isoflurane (1.75-2.5% v/v) was used to maintain anesthesia during surgery and recordings. In order to maintain the rat's body temperature at 37° C., a thermostat-controlled blanket (Harvard Apparatus, Holliston, Mass.) was used during the procedure. For electrophysiological recording, electrode arrays were inserted into the DCN, IC, and AC. Prior to insertion, the electrode probe was dipped into a 3% DiI solution (1,10-dioctadecyl-3,3,30,30-tetramethylindocarbocyanine perchlorate; Invitrogen, Carlsbad, Calif.) prepared with dimethylformamide to label the electrode insertion tracks. By using a micromanipulator (model 1460-61; David Kopf Instruments), an eight-shank, 32-channel electrode probe (NeuroNexus Technologies, Ann Arbor, Mich.) was inserted into the DCN and the probe was inserted into a depth of […] below the DCN surface, corresponding to the fusiform cell layer. For the IC, a two-shank 32-Channel (NeuroNexus) probe was inserted 20° off of the sagittal plane and 30° off of the horizontal plane through the occipital cortex into the IC. To implant in the AC, a 32 (4×8) microwire array was implanted 2.7 to 5.8 mm posterior to the bregma, and ˜0.8-1.0 mm from the cortical surface. After probe placement, the brain was covered with agarose to avoid tissue swelling and drying. The probe connector was connected to a real-time signal processing system (RZ2, TDT) with a 25 kHz sampling rate and a 100-3000 Hz bandpass filter. Spontaneous activity, frequency tuning curves (FTCs), and acoustic stimulation with tone and noise bursts (BBN) was recorded. Spontaneous single- and multi-unit spikes were recorded twice; one 5 min prior to and one 5 min after frequency tuning curve (FTC) construction. Each spontaneous recording period lasted 5 min. FTCs were obtained to determine the frequency representation of each implanted electrode in the DCN, IC and AC using tone sweeps (50 ms in duration, 2-44 kHz, incremental steps of 2 dB, sound level range of 0-85 dB SPL).

C75BL6 mice = experiment: Noise-induced tinnitus, gap detection, 3,6′-dithiothalidomide; type: in vivo, mouse
Protocol: Tinnitus was assessed using the gap detection paradigm.
A group of C75BL6 mice underwent 4 days of gap detection testing. On the fifth day, the mice were exposed to 123-dB noise in their left ears for two hours, which was followed immediately by the administration of 3,6′-dithiothalidomide at a dose of 28 mg/kg. The drug was administered daily for five days. On day 10 post noise exposure, gap detection tests were resumed to test the animals' performance. Impaired gap detection compared to prenoise exposure performance is behavioral evidence of tinnitus.

Pyramidal neurons = experiment: Patch clamp mIPSC and mEPSC in brain slices after noise exposure; type: in vivo, mouse
Protocol: Three groups of C75BL6 mice were used. Two were exposed to 123-dB noise in the left ear for two hours. Animals in one of the two exposed group were administered 3,6′-dithiothalidomide. The drug was administered daily for five days. The remaining third group underwent the same procedure but without noise exposure or drug administration. On day 10 post-noise exposure, animals were euthanized and brain slices were prepared. Pyramidal neurons in the brain slices were recorded as described above. Miniature inhibitory and excitatory synaptic transmissions (mIPSC and mEPSC) were examined.

[1] = system: ionized calcium-binding adapter molecule 1 (Iba-1); experiment: Iba-1 immunostaining densitometry of microglia after blast; type: in vivo, rat; conditions: immunostained microglia, FIG. 23A
Source text: FIGS. 23A and 23B depict densitometry measurements of ionized calcium-binding adapter molecule 1 (Iba-1) and TNF-α expression, respectively, as observed by fluorescence microscopy of immunohistochemistry-stained microglia. […] Error bars in FIGS. 23A-23B depict standard deviation.

## O=C1NC(=S)CCC1N1C(=O)c2ccccc2C1=S (stereo not drawn) [3,6′-dithiothalidomide]
DCN, IC and AC neurons; DCN, IC and AC, FIGS. 22A-22C
  neuronal firing synchrony (correlogram ratio): significantly reduced neuronal firing synchrony
DCN, IC and AC neurons; FIG. 20A
  spontaneous bursting rate in the DCN: reduced bursting rates in blast-exposed animals to the control level
DCN, IC and AC neurons; FIG. 20B
  spontaneous firing rate in the DCN: reduced firing rates in blast-exposed animals to the control level
DCN, IC and AC neurons; FIG. 21A
  spontaneous bursting rate in the AC: reduced bursting rates in blast-exposed animals relative to vehicle
DCN, IC and AC neurons; FIG. 21B
  spontaneous firing rate in the AC: reduced firing rates in blast-exposed animals to the control level
C75BL6 mice; 28 mg/kg, FIG. 25
  noise-induced tinnitus (startle-response ratio): prevents noise-induced tinnitus in mice
C75BL6 mice; 123-dB noise 2 h, 28 mg/kg daily for five days, tested day 10 post exposure
  gap detection performance after noise exposure: not significantly altered
Pyramidal neurons; mice, 123-dB noise 2 h, 28 mg/kg daily for five days, day 10, FIG. 26A, 28 mg/kg
  mIPSC frequency (noise-induced reduction): completely reversed; also recorded: rescues the reduction in mIPSC frequency
Pyramidal neurons; mice, 123-dB noise 2 h, 28 mg/kg, FIG. 26B
  mIPSC amplitude (noise-induced reduction): rescues the reduction in mIPSC amplitude
Pyramidal neurons; noise-exposed treated mice relative to control mice, FIG. 26C
  mEPSC frequency: no effect
Pyramidal neurons; noise-exposed treated mice relative to control mice, FIG. 26D
  mEPSC amplitude: no significant effect
[1]
  blast-induced microglial activation (Iba-I staining): not blocked
